# Assay results from US11917908B2, “Organic compound, optical device, light-emitting device, light-emitting apparatus, electronic device, and lighting device” (SEMICONDUCTOR ENERGY LABORATORY CO., LTD., priority 2019, dated 2024).
# How the values were obtained:
# Type in all cases: physicochemical
# [1] = Thermogravimetry-differential thermal analysis (TG-DTA), weight reduction temperature; settings: for Temperature at TG −5% (weight reduction temperature): weight reduced from initial weight by 5%; for Temperature at TG −5% (weight reduction temperature) / Temperature at TG −10% (weight reduction temperature) / Temperature at TG −50% (weight reduction temperature): 10 Pa, temperature rising rate 10° C./min; for Temperature at TG −10% (weight reduction temperature): weight reduced from initial weight by 10%; for Temperature at TG −50% (weight reduction temperature): weight reduced from initial weight by 50%
# Protocol: The thermogravimetry-differential thermal analysis (TG-DTA) of these four substances was performed. The measurement was performed with a high vacuum differential type differential thermal balance (TG-DTA2410SA, produced by Bruker AXS K.K.). […] The temperatures of the time when the weight of the organic compounds is reduced from the initial weight by 5%, 10%, and 50% (weight reduction temperature) are shown in Table 3.
# [2] = Solubility in a solvent (toluene, 25° C.); settings: for solubility: organic solvent or mixture, 1M
# Protocol: The measurement results on the solubility of 3,10PCA2Nbf(IV)-02 and 3,10mmtBuPCA2Nbf(IV)-02 in a solvent are shown below. The solubility in the table are that in toluene at 25° C. Consequently, the organic compound of one embodiment of the present invention has improved solubility in a solvent owing to the bonding of the secondary or tertiary alkyl groups having 3 to 6 carbon atoms and having a branched carbon atom which is bonded to the phenyl group to the two meta-positions of the phenyl group bonded to the 9-position of the carbazolyl group. Thus, the organic compound of one embodiment of the present invention can be easily produced owing to the easy purification.
# [3] = Behaviour at sublimation purification; settings: at the time of sublimation purification
Temperature at TG −5% (weight reduction temperature) [1] [°C],Temperature at TG −10% (weight reduction temperature) [1] [°C],Temperature at TG −50% (weight reduction temperature) [1] [°C],solubility [2] [mM],Sublimability (from weight reduction temperatures) ([1]; comparison of the four substances of Table 3),Solubility 0.01M ([2]; 0.01M),Solubility 0.1M ([2]; 0.1M),SMILES,Stability at sublimation purification [3]
398,411,442,< 10,–,–,–,"c1ccc(N(c2ccc3c(c2)oc2cc4cc5c(cc4cc23)oc2cc(N(c3ccccc3)c3ccc4c6ccccc6n(-c6ccccc6)c4c3)ccc25)c2ccc3c4ccccc4n(-c4ccccc4)c3c2)cc1 [3,10PCA2Nbf(IV)-02, 3,10-bis[N-(9-phenyl-9H-carbazol-2-yl)-N-phenylamino]naphtho[2,3-b;6,7-b′]bisbenzofuran]",–
378,394,423,< 1000,highest sublimability,∘,∘,"CC(C)(C)c1cc(-n2c3ccccc3c3ccc(N(c4ccccc4)c4ccc5c(c4)oc4cc6cc7c(cc6cc45)oc4cc(N(c5ccccc5)c5ccc6c8ccccc8n(-c8cc(C(C)(C)C)cc(C(C)(C)C)c8)c6c5)ccc47)cc32)cc(C(C)(C)C)c1 [3,10mmtBuPCA2Nbf(IV)-02, N,N-bis[9-(3,5-di-tert-butylphenyl)-9H-carbazol-2-yl]-N,N-diphenyl-naphtho[2,3-b;6,7-b′]bisbenzofuran-3,10-diamine]",–
384,407,442,–,–,–,–,"CCCCCCc1cc(CCCCCC)cc(-n2c3ccccc3c3ccc(N(c4ccccc4)c4ccc5c(c4)oc4cc6cc7c(cc6cc45)oc4cc(N(c5ccccc5)c5ccc6c8ccccc8n(-c8cc(CCCCCC)cc(CCCCCC)c8)c6c5)ccc47)cc32)c1 [3,10mmHexPCA2Nbf(IV)-02, N,N-bis[9-(3,5-dihexylphenyl)-9H-carbazol-2-yl]-N,N-diphenyl-naphtho[2,3-b;6,7-b′]bisbenzofuran-3,10-diamine]",decomposed at the time of sublimation purification
380,402,436,–,–,–,–,"CCc1cc(CC)cc(-n2c3ccccc3c3ccc(N(c4ccccc4)c4ccc5c(c4)oc4cc6cc7c(cc6cc45)oc4cc(N(c5ccccc5)c5ccc6c8ccccc8n(-c8cc(CC)cc(CC)c8)c6c5)ccc47)cc32)c1 [3,10mmEtPCA2Nbf(IV)-02, N,N-bis[9-(3,5-diethylphenyl)-9H-carbazol-2-yl]-N,N-diphenyl-naphtho[2,3-b;6,7-b′]bisbenzofuran-3,10-diamine]",–
